Source: patent EP2143422A1, “Ophthalmic compositions containing gemifloxacin for the treatment of ocular infections” (S.I.F.I - SOCIETÀ INDUSTRIA FARMACEUTICA ITALIANA - S.P.A., priority 2008, dated 2010)
≈ marks a conversion by molar mass, not a printed value. Where two headings read alike, the source gives them in different places.

Columns and labels:
St. coagulase negative = assay: E-test (Epsilometer-test), in vitro antibacterial effectiveness; type: cell-based, Coagulase Negative Staphylococci (CNS); settings: 16 ocular isolates
From the text: (§1) In order to assay the effectiveness of gemifloxacin against the most representative pathogenic strains in ophthalmic infections, its activity was verified in vitro, in terms of MIC50 and MIC90 with the E-test method described by V. Lorian in "Antibiotics in laboratory medicine" (IV ed. 1996, 23-28) and compared to moxifloxacin, ciprofloxacin, levofloxacin and ofloxacin against 85 ocular bacterial isolates subdivided as follows: • 27 St. aureus, 29 S. epidermidis, 16 Coagulase Negative Staphylococci (CNS), 8 Ps. aeruginosa and 5 Serratia marcescens. The following ATCC bacterial strains were also included: Staphylococcus aureus 25923, Staphylococcus aureus 29213, Staphylococcus aureus 43300, S. epidermidis 35984, Pseudomonas aeruginosa 27853 and Pseudomonas aeruginosa 9027.
(§2) The staphylococci also included methicillin resistant strains (MRSA and MRSE).

St. epidermidis = assay: as above; type: cell-based; settings: Staphylococcus epidermidis; 29 ocular isolates of St. epidermidis
From the text: as §1, §2

St. aureus [1] = assay: as above; type: cell-based; settings: 27 ocular isolates of St. aureus
From the text: as §1, §2

Ps. aeruginosa = assay: as above; type: cell-based; settings: Pseudomonas aeruginosa; 8 ocular isolates of Ps. aeruginosa
From the text: (§3) In order to assay the effectiveness of gemifloxacin against the most representative pathogenic strains in ophthalmic infections, its activity was verified in vitro, in terms of MIC50 and MIC90 with the E-test method described by V. […] The following ATCC bacterial strains were also included: Staphylococcus aureus 25923, Staphylococcus aureus 29213, Staphylococcus aureus 43300, S. epidermidis 35984, Pseudomonas aeruginosa 27853 and Pseudomonas aeruginosa 9027.

Serratia marcescens = assay: as above; type: cell-based; settings: 5 ocular isolates of Serratia marcescens
From the text: as §3

St. aureus [2] = settings: literature, cited from earlier work
[3] = design: species or system New Zealand albino rabbits; settings: male, New Zealand albino, rabbit, in vivo
Experimental: (§4) The effectiveness and accumulation of gemifloxacin in the cornea and aqueous humour were determined in vivo after administration of the 0.3% gemifloxacin compositions (emulsion and aqueous solution) and compared to 0.3% norfloxacin and ofloxacin in aqueous solution, in New Zealand albino rabbits having been induced with bacterial keratitis (Survey of Ophthalmology, vol. 50, suppl. Nov. 2005, p.S32-S48) by intrastromal injection of an inoculum of an ocular St. aureus isolate (7786).
(§5) Male New Zealand albino rabbits were used (Harlan Italia) into which the keratitis had been induced - following anaesthesia with ketamine (37.5 mg/kg) and xylazine (10 mg/kg) by intramuscular means and novesine by topical means (2 drops per eye) - by intrasomal injection of a suspension of the ocular St. aureus isolate 7786 in PBS (Phosphate Buffered Solution). The injection was carried out using an insulin syringe with a 30-gauge needle in each cornea of each rabbit.
(§6) In the first experiment the following treatments were compared: 0.15% aqueous gemifloxacin solution, 0.3% aqueous gemifloxacin solution, 0.3% aqueous norfloxacin solution and physiological solution (0.9% NaCl) as control. The treatment was undertaken every 2 hours over 3 consecutive treatment days (5 administrations/day). The tissues were collected an hour after the last treatment, with the end point being after one day and after three days of treatment.
(§7) In the second experiment the following treatment groups were compared: 0.3% aqueous gemifloxacin solution, 0.3% gemifloxacin emulsion, 0.3% aqueous ofloxacin solution and physiological solution (0.9% NaCl) as control. The treatment was carried out every hour for only one day of treatment (7 administrations/day). The tissues were collected from the animals in each group, killed one hour after the last treatment.
All the compositions used in the two experiments described were administered at 50 µl per treatment. […]
The fluorescence value obtained was interpolated using the relative standard curve and expressed as nanograms/ml or nanograms/g of tissue.

[4] = tested on: ocular St. aureus isolate (7786); assay: In vivo effectiveness: bacterial load (CFU/g) in cornea, bacterial keratitis model; design: species or system New Zealand albino rabbits
Experimental: as §4, §5, §6, §7
All the compositions used in the two experiments described were administered at 50 µl per treatment.
The bacterial load of each sample was determined by counting CFUs (Colony Forming Units) on a filter and plate, to be reported as CFU/g of tissue.

[5] = In vivo pharmacokinetic test: ocular tissue distribution after single ophthalmic administration; design: species or system pigmented rabbits; settings: rabbit, topical, 30 µl of 0.3% solution per eye
Experimental: The penetration capacity of gemifloxacin was determined in the cornea, conjunctiva, aqueous humour and iris-ciliary body after single ophthalmic administration (30 µl) of the solution at 0.3% in both eyes of pigmented rabbits. The tissues were collected at the following times: 15 minutes, 30 minutes, 1, 2, 4, 8, 12, 24 and 48 hours. Quantitative analysis of the samples was carried out by a LC/MS/MS method after suitable extraction of the active principle from the tissue and expressed as µg/g or µg/ml of tissue.

[6] = Staphylococcus aureus, read-out: MIC90
[7] = first experiment, 0.3% aqueous solution, every 2 hours, 5 administrations/day, after one and three days, compared with control (gemifloxacin also vs norfloxacin)
[8] = conjunctiva, single ophthalmic administration (30 µl) of 0.3% solution
[9] = cornea, single ophthalmic administration (30 µl) of 0.3% solution

Compound | MIC50 (St. coagulase negative) | MIC90 (St. coagulase negative) | MIC50 (St. epidermidis) | MIC90 (St. epidermidis) | MIC50 (St. aureus [1]; Staphylococcus aureus) | MIC90 (St. aureus [1]; [6]) | MIC50 (Ps. aeruginosa) | MIC90 (Ps. aeruginosa) | MIC50 (Serratia marcescens) | MIC90 (Serratia marcescens) | concentration in the cornea relative to MIC for St. aureus [3] | reduction in bacterial load in the cornea [4, 7] | other results
COc1c(N2C[C@@H]3CCCN[C@@H]3C2)c(F)cc2c(=O)c(C(=O)O)cn(C3CC3)c12 [Moxifloxacin] | 0.047 µg/mL (≈ 0.117 µM) | 0.094 µg/mL (≈ 0.234 µM) | 0.047 µg/mL (≈ 0.117 µM) | 0.094 µg/mL (≈ 0.234 µM) | 0.064 µg/mL (≈ 0.159 µM) | 0.38 µg/mL (≈ 0.947 µM) | 0.5 µg/mL (≈ 1.25 µM) | 1 µg/mL (≈ 2.49 µM) | 0.19 µg/mL (≈ 0.473 µM) | 0.38 µg/mL (≈ 0.947 µM) |  |  | 
C[C@H]1COc2c(N3CCN(C)CC3)c(F)cc3c(=O)c(C(=O)O)cn1c23 [Levofloxacin] | 0.25 µg/mL (≈ 0.692 µM) | 0.25 µg/mL (≈ 0.692 µM) | 0.19 µg/mL (≈ 0.526 µM) | 0.38 µg/mL (≈ 1.05 µM) | 0.25 µg/mL (≈ 0.692 µM) | 0.75 µg/mL (≈ 2.08 µM) | 0.5 µg/mL (≈ 1.38 µM) | 0.75 µg/mL (≈ 2.08 µM) | 0.125 µg/mL (≈ 0.346 µM) | 0.25 µg/mL (≈ 0.692 µM) |  |  | 
CCn1cc(C(=O)O)c(=O)c2cc(F)c(N3CCNCC3)cc21 [norfloxacin] |  |  |  |  |  |  |  |  |  |  | lower corneal concentrations than its MIC50-MIC90 range | does not lead to a reduction in bacterial load | MIC50 (St. aureus [2]; lower end of MIC50-MIC90 range for St. aureus): 0.5 µg/mL (≈ 1.57 µM); MIC90 (St. aureus [2]; upper end of MIC50-MIC90 range for St. aureus): 2 µg/mL (≈ 6.26 µM)
O=C(O)c1cn(C2CC2)c2cc(N3CCNCC3)c(F)cc2c1=O [Ciprofloxacin] | 0.25 µg/mL (≈ 0.754 µM) | 0.25 µg/mL (≈ 0.754 µM) | 0.19 µg/mL (≈ 0.573 µM) | 0.5 µg/mL (≈ 1.51 µM) | 0.5 µg/mL (≈ 1.51 µM) | > 32 µg/mL | 0.125 µg/mL (≈ 0.377 µM) | 0.25 µg/mL (≈ 0.754 µM) | 0.064 µg/mL (≈ 0.193 µM) | 0.125 µg/mL (≈ 0.377 µM) |  |  | 
CO/N=C1\CN(c2nc3c(cc2F)c(=O)c(C(=O)O)cn3C2CC2)CC1CN (racemic) [Gemifloxacin, (R,S)-7-(3-aminomethyl-4-methoxyiminopyrrolidin-1yl)-1-cyclopropyl-6-fluoro-4-oxo-1,4-dihydro-1,8-naphthyridin-3-carboxylic acid] | 0.016 µg/mL (≈ 0.0411 µM) | 0.047 µg/mL (≈ 0.121 µM) | 0.023 µg/mL (≈ 0.0591 µM) | 0.094 µg/mL (≈ 0.241 µM) | 0.032 µg/mL (≈ 0.0822 µM) | 0.064 µg/mL (≈ 0.164 µM) | 0.125 µg/mL (≈ 0.321 µM) | 0.25 µg/mL (≈ 0.642 µM) | 0.125 µg/mL (≈ 0.321 µM) | 0.19 µg/mL (≈ 0.488 µM) |  | statistically significant reduction in bacterial load | Cmax ([5]; aqueous humour, single administration of 0.3% aqueous solution, healthy eyes): 26 ng/mL; Tmax ([5]; aqueous humour, single ophthalmic administration (30 µl) of 0.3% solution): 2 h; Cmax ([5]; conjunctiva, single administration of 0.3% aqueous solution, healthy eyes): 980 ng/mL; Cmax [5, 8]: 980 ng/g; Tmax [5, 8]: 0.25 h; Cmax ([5]; cornea, single administration of 0.3% aqueous solution, healthy eyes): 2600 ng/mL; Cmax [5, 9]: 2600 ng/g; Tmax [5, 9]: 0.25 h; Cmax ([5]; iris-ciliary body, single administration of 0.3% aqueous solution, healthy eyes): 460 ng/g; Tmax ([5]; iris-ciliary body, single ophthalmic administration (30 µl) of 0.3% solution): 2 h; reduction in bacterial load in the cornea ([4]; first experiment, 0.15% aqueous solution, every 2 hours, 5 administrations/day, after one and three days, compared to control and 0.3% norfloxacin): statistically significant reduction in bacterial load; reduction in bacterial load in the cornea ([4]; second experiment, 0.3% aqueous solution, every hour, 7 administrations, one day, compared to control): statistically significantly reduce; reduction in bacterial load in the cornea ([4]; second experiment, 0.3% emulsion, every hour, 7 administrations, one day, compared to control): statistically significantly reduce; reduction in bacterial load relative to the reduction effected by ofloxacin ([4]; second experiment, gemifloxacin-containing compositions (0.3% aqueous solution and 0.3% emulsion) vs 0.3% ofloxacin solution): statistically significant
CC1COc2c(N3CCN(C)CC3)c(F)cc3c(=O)c(C(=O)O)cn1c23 (stereo not shown) [Ofloxacin] | 0.25 µg/mL (≈ 0.692 µM) | 0.5 µg/mL (≈ 1.38 µM) | 0.25 µg/mL (≈ 0.692 µM) | 16 µg/mL (≈ 44.3 µM) | 0.5 µg/mL (≈ 1.38 µM) | 1.5 µg/mL (≈ 4.15 µM) | 0.5 µg/mL (≈ 1.38 µM) | 1 µg/mL (≈ 2.77 µM) | 0.19 µg/mL (≈ 0.526 µM) | 0.38 µg/mL (≈ 1.05 µM) | near to its MIC50 |  | concentration in the aqueous humour [3]: about 1.5 µg/ml; MIC90 (St. aureus [1]): 1.5 µg/mL (≈ 4.15 µM); MIC90 (St. aureus [1]; listed as ofloxacin): 1.15 µg/mL (≈ 3.18 µM)
